# Laboratory results: US8569298B2, “Pyridine compounds” (Astrazeneca AB, priority 2008, dated 2013)
# Molecular target: T1, FAK enzyme (6 His tagged kinase domain, GenBank NP—722560) (Homo sapiens, UniProt Q05397)
# T1 construct: 6 His; made in house; host or cells: insect cell culture infected with baculovirus
# Experiment: In vitro enzyme assay (a): sandwich ELISA of FAK tyrosine kinase activity on polyGAT peptide, TMB colorimetric endpoint
# Format: biochemical
# Settings: in vitro Enzyme Assay test (a); ATP at Km; geometric mean of n > 1 measurements, values marked * tested once
# In short: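 Recombinant His-tagged FAK kinase domain (baculovirus/insect cells) phosphorylated plate-coated polyGAT with ATP at Km, MgCl2/MnCl2, HEPES pH 7.4, 25 min at room temperature before EDTA stop. Phosphotyrosine detected by HRP-4G10 antibody and TMB absorbance at 450 nm; IC50 from 12-point curve anchored to DMSO and staurosporine controls.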
# T1 sequence (Q05397 422-680 limits assumed): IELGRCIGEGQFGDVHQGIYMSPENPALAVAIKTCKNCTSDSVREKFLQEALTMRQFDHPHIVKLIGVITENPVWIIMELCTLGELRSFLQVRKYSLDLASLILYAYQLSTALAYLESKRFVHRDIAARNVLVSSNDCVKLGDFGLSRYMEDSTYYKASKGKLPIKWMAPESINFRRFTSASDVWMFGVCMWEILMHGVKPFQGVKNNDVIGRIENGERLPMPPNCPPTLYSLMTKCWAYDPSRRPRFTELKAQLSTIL
row,Compound,IC50 [nM]
1,"CC(=O)N1CCC(n2cc(Nc3cc(Nc4cccc5c4C(=O)N(C)CC5)c(Cl)cn3)cn2)CC1 [Example 3.31, 8-[[2-[[1-(1-acetyl-4-piperidyl)pyrazol-4-yl]amino]-5-chloro-4-pyridyl]amino]-2-methyl-3,4-dihydroisoquinolin-1-one]",171
2,"CNC(=O)c1ccccc1Nc1cc(Nc2cnn(CC(=O)N3CCN(C)CC3)c2)ncc1Cl [Example 3.07, 2-[[5-chloro-2-[[1-[2-(4-methylpiperazin-1-yl)-2-oxo-ethyl]pyrazol-4-yl]amino]-4-pyridyl]amino]-N-methyl-benzamide]",48
3,"CNC(=O)c1ccccc1Nc1cc(Nc2cnn(CC(=O)N3CCOCC3)c2)ncc1Cl [Example 3.05, 2-[[5-chloro-2-[[1-(2-morpholino-2-oxo-ethyl)prazol-4-yl]amino]-4-pyridyl]amino]-N-methyl-benzamide]",90
4,"Cc1nn(C)cc1Nc1cc(Nc2cccc3c2C(=O)N(C)CCO3)c(C(F)(F)F)cn1 [Example 5.03, 6-[[2-[(1,3-dimethylpyrazol-4-yl)amino]-5-(trifluoromethyl)-4-pyridyl]amino]-4-methyl-2,3-dihydro-1,4-benzoxazepin-5-one]",6
5,"CON(C)C(=O)c1ccccc1Nc1cc(Nc2cn(C)nc2C)ncc1Cl [Example 3.21, 2-[[5-chloro-2-[(1,3-dimethylpyrazol-4-yl)amino]-4-pyridyl]amino]-N-methoxy-N-methyl-benzamide]",324
6,"CN(C)CCCNC(=O)Cn1cc(Nc2cc(Nc3cccc4c3C(=O)N(C)CC4)c(F)cn2)cn1 [Example 4.21, N-(3-dimethylaminopropyl)-2-[4-[[5-fluoro-4-[(2-methyl-1-oxo-3,4-dihydroisoquinolin-8-yl)amino]-2-pyridyl]amino]pyrazol-1-yl]acetamide]",188
7,CNC(=O)c1ccccc1Nc1cc(Nc2cnn(CC(=O)N(C)CCOC)c2)ncc1F [Example 4.03],2120
8,"CNC(=O)c1cc(N2CCN(C)CC2)ccc1Nc1cc(Nc2cn(C)nc2C)ncc1Cl [Example 3.37, 2-[[5-chloro-2-[(1,3-dimethylpyrazol-4-yl)amino]-4-pyridyl]amino]-N-methyl-5-(4-methylpiperazin-1-yl)benzamide]",1050
9,"CON(C)C(=O)c1ccccc1Nc1cc(Nc2cn(C)nc2C)ncc1C#N [Example 1.03, 2-[[5-Cyano-2-[(1,3-dimethylpyrazol-4-yl)amino]-4-pyridyl]amino]-N-methoxy-N-methyl-benzamide]",554
10,"CN1CCc2cccc(Nc3cc(Nc4cnn([C@@H]5CCC(=O)NC5)c4)ncc3F)c2C1=O [Example 4.13, 8-[[5-fluoro-2-[[1-[(3R)-6-oxopiperidin-3-yl]pyrazol-4-yl]amino]pyridin-4-yl]amino]-2-methyl-3,4-dihydroisoquinolin-1-one]",1030
11,"CON(C)C(=O)c1ccccc1Nc1cc(Nc2cnn(C3CCN(C)CC3)c2)ncc1Cl [Example 3.20, 2-[[5-Chloro-2-[[1-(1-methyl-4-piperidyl)pyrazol-4-yl]amino]-4-pyridyl]amino]-N-methoxy-N-methyl-benzamide]",1230
12,"CN1CCc2cccc(Nc3cc(Nc4cnn(C5CCCNC5)c4)ncc3Cl)c2C1=O (stereo not shown) [Example 3.34, 8-[[5-chloro-2-[[1-(3-piperidyl)pyrazol-4-yl]amino]-4-pyridyl]amino]-2-methyl-3,4-dihydroisoquinolin-1-one]",160
13,"CNC(=O)c1c(Nc2cc(Nc3cn(C)nc3C)ncc2C(F)(F)F)cccc1OC [Example 5.02, 2-[[2-[(1,3-dimethylpyrazol-4-yl)amino]-5-(trifluoromethyl)-4-pyridyl]amino]-6-methoxy-N-methyl-benzamide]",9
14,"CN1CCN(c2[nH]nc(Nc3cc(Nc4cccc5c4C(=O)N(C)CC5)c(F)cn3)c2C#N)CC1 [Example 4.29, 3-[[5-Fluoro-4-[(2-methyl-1-oxo-3,4-dihydroisoquinolin-8-yl)amino]-2-pyridyl]amino]-5-(4-methylpiperazin-1-yl)-1H-pyrazole-4-carbonitrile]",22700
15,"Cc1nn(C)cc1Nc1cc(Nc2cccc3c2C(=O)N(C)CC3)c(C(F)(F)F)cn1 [Example 5.01, 8-[[2-[(1,3-dimethylpyrazol-4-yl)amino]-5-(trifluoromethyl)-4-pyridyl]amino]-2-methyl-3,4-dihydroisoquinolin-1-one]",6
16,"CN1CCc2cccc(Nc3cc(Nc4cnn(C5CCOCC5)c4)ncc3F)c2C1=O [Example 4.15, 8-[[5-fluoro-2-[(1-tetrahydropyran-4-ylpyrazol-4-yl)amino]-4-pyridyl]amino]-2-methyl-3,4-dihydroisoquinolin-1-one]",454

# Further lines, results first:
row,IC50 [nM],Compound
1,8,"CNC(=O)c1ccccc1Nc1cc(Nc2cc(C)nn2C)ncc1C(F)(F)F [Example 8.02, 2-[[2-[(2,5-dimethylpyrazol-3-yl)amino]-5-(trifluoromethyl)-4-pyridyl]amino]-N-methyl-benzamide]"
2,915,"CNC(=O)c1nn(C)cc1Nc1cc(Nc2cccc3c2C(=O)N(C)CC3)c(Cl)cn1 [Example 12.01, 4-[[5-chloro-4-[(2-methyl-1-oxo-3,4-dihydroisoquinolin-8-yl)amino]-2-pyridyl]amino]-N,1-dimethyl-pyrazole-3-carboxamide]"
3,26,"CNC(=O)c1cc(N2CCOCC2)ccc1Nc1cc(Nc2cn(C)nc2C)ncc1C(F)(F)F [Example 10.11, 2-[[2-[(1,3-dimethylpyrazol-4-yl)amino]-5-(trifluoromethyl)-4-pyridyl]amino]-N-methyl-5-morpholino-benzamide]"
4,15,"CNC(=O)c1ccccc1Nc1cc(Nc2cn(C)nc2C#N)ncc1C(F)(F)F [Example 12.11, 2-[[2-[(3-cyano-1-methyl-pyrazol-4-yl)amino]-5-(trifluoromethyl)-4-pyridyl]amino]-N-methyl-benzamide]"
5,14,"CCn1cc(Nc2cc(Nc3ccccc3C(=O)NC)c(C(F)(F)F)cn2)cn1 [Example 8.05, 2-[[2-[(1-ethylpyrazol-4-yl)amino]-5-(trifluoromethyl)-4-pyridyl]amino]-N-methyl-benzamide]"
6,9,"CNC(=O)c1ccc(F)cc1Nc1cc(Nc2cn(C)nc2C)ncc1C(F)(F)F [Example 10.05, 2-[[2-[(1,3-dimethylpyrazol-4-yl)amino]-5-(trifluoromethyl)-4-pyridyl]amino]-4-fluoro-N-methyl-benzamide]"
7,5620,"CCc1nn(C(C)(C)C)c(Nc2cc(Nc3cccc4c3C(=O)N(C)CC4)c(Cl)cn2)c1C [Example 6.08, 8-[[2-[(2-tert-butyl-5-ethyl-4-methyl-pyrazol-3-yl)amino]-5-chloro-4-pyridyl]amino]-2-methyl-3,4-dihydroisoquinolin-1-one]"
8,6,"CCn1cc(Nc2cc(Nc3ccccc3C(=O)NC)c(C(F)(F)F)cn2)c(C)n1 [Example 8.04, 2-[[2-[(1-ethyl-3-methyl-pyrazol-4-yl)amino]-5-(trifluoromethyl)-4-pyridyl]amino]-N-methyl-benzamide]"
9,6,"CNC(=O)c1ccccc1Nc1cc(Nc2cnn(C)c2C)ncc1C(F)(F)F [Example 8.03, 2-[[2-[(1,5-dimethylpyrazol-4-yl)amino]-5-(trifluoromethyl)-4-pyridyl]amino]-N-methyl-benzamide]"
10,24,"CNC(=O)c1c(Nc2cc(Nc3c(C)nn(C)c3C)ncc2C(F)(F)F)cccc1OC [Example 15.04, 2-Methoxy-N-methyl-6-[[5-(trifluoromethyl)-2-[(1,3,5-trimethylpyrazol-4-yl)amino]-4-pyridyl]amino]benzamide]"
11,6,"CONC(=O)c1cc(F)ccc1Nc1cc(Nc2cn(C)nc2C)ncc1C(F)(F)F [Example 16.02, 2-[[2-[(1,3-dimethylpyrazol-4-yl)amino]-5-(trifluoromethyl)-4-pyridyl]amino]-5-fluoro-N-methoxy-benzamide]"
12,3,"CNC(=O)c1ccccc1Nc1cc(Nc2cn(C)nc2OC)ncc1C(F)(F)F [Example 12.12, 2-[[2-[(3-methoxy-1-methyl-pyrazol-4-yl)amino]-5-(trifluoromethyl)-4-pyridyl]amino]-N-methyl-benzamide]"
13,2,"CNC(=O)c1cc(C)ccc1Nc1cc(Nc2cn(C)nc2C)ncc1C(F)(F)F [Example 10.03, 2-[[2-[(1,3-dimethylpyrazol-4-yl)amino]-5-(trifluoromethyl)-4-pyridyl]amino]-N,5-dimethyl-benzamide]"
14,3,"CONC(=O)c1ccc(F)cc1Nc1cc(Nc2cc(C)nn2C)ncc1C(F)(F)F [Example 15.02, 2-[[2-[(2,5-dimethylpyrazol-3-yl)amino]-5-(trifluoromethyl)-4-pyridyl]amino]-4-fluoro-N-methoxy-benzamide]"
15,10,"CN1CCc2cccc(Nc3cc(Nc4cc(C5CC5)nn4C)ncc3Cl)c2C1=O [Example 6.05, 8-[[5-chloro-2-[(5-cyclopropyl-2-methyl-pyrazol-3-yl)amino]-4-pyridyl]amino]-2-methyl-3,4-dihydroisoquinolin-1-one]"
16,8,"COc1nn(C)cc1Nc1cc(Nc2cccc3c2C(=O)N(C)CC3)c(Cl)cn1 [Example 12.06, 8-[[5-chloro-2-[(3-methoxy-1-methyl-pyrazol-4-yl)amino]-4-pyridyl]amino]-2-methyl-3,4-dihydroisoquinolin-1-one]"
17,4,"CONC(=O)c1ccc(F)cc1Nc1cc(Nc2cn(C)nc2C)ncc1C(F)(F)F [Example 15.01, 2-[[2-[(1,3-dimethylpyrazol-4-yl)amino]-5-(trifluoromethyl)-4-pyridyl]amino]-4-fluoro-N-methoxy-benzamide]"
18,23,"Cc1nn(C(F)F)cc1Nc1cc(Nc2cccc3c2C(=O)N(C)CC3)c(Cl)cn1 [Example 13.04, 8-[[5-chloro-2-[[1-(difluoromethyl)-3-methyl-pyrazol-4-yl]amino]-4-pyridyl]amino]-2-methyl-3,4-dihydroisoquinolin-1-one]"
